Patent US20140187559A1, “INHIBITORS OF THE FIBROBLAST GROWTH FACTOR RECEPTOR” (BLUEPRINT MEDICINES CORPORATION, priority 2012, published 2014)

Experiments:
[1] = system: Hep3B xenograft tumors; test: Hep3B liver cancer cell subcutaneous xenograft model, tumor volume; format: in vivo, Mus Musculus
Procedure: […] female nude mice (Mus Musculus) age 6 to 8 weeks were used. Tumor cell culture and inoculation: Hep3B cells were cultured with EMEM medium (Invitrogen, USA) supplemented with 10% FBS (Gibco, Australia). The cells were harvested in 90% confluence, and the viability was no less than 90%. Mice were implanted subcutaneously (s.c.) with 200 μL of 10×10^6 Hep3B cells in 50% Matrigel in the right flank at the beginning of the study.
Animal grouping and dosing schedule: Ten days after cell implantation, when tumors reached an average volume of 199 mm^3, 45 mice were selected based on tumor volume and randomly assigned to 5 treatment groups (n=9). The day of randomization was denoted as D0 and the treatment was started from then on.
(§1) Tumor volume and body weight measurements: Tumor size was measured twice per week in two dimensions using a caliper, and the volume was expressed in mm^3 using the formula: V=0.5 a×b^2 where a and b were the long and short diameters of the tumor, respectively. Body weight was measured at least twice weekly.
End of in vivo portion: Blood, tumors and livers were collected from 3 mice in each treated group at 4, 12 and 24 hours after the last dose. The left lobe of the liver was collected for pharmacodynamic (PD) studies, and the rest of the liver was stored in formalin for histology. The small tumors were prioritized for use in pharmacokinetic studies. Any remaining tumor was fixed for histological analysis first, and then was snap-frozen for the PD study.

[2] = system: Hep3B cells; test: Induction of apoptosis (Caspase-Glo3/7) in Hep3B cells; format: cell-based; conditions: 6 hours, FIG. 3
Procedure: Hep3B cells were seeded at 20 k/well in 96-well white plates in 200 ul of DMEM/5% FBS overnight. The next day compound was added at a final DMSO concentration of 0.1% and incubated for 6 hours. Caspase activity was measured according to manufacture instruction (Caspase-Glo3/7 Assay (Promega)). Briefly, 100 ul of Caspase-Glo3/7 reagent was added to each well and incubated for 1 hour in the dark. Luminescence was measured using EnVision.

[3] = molecular target: T1, wild type FGFR-4 (Homo sapiens, UniProt P22455); test: FGFR-4 wild type assay at Km (Caliper mobility shift); format: biochemical; conditions: for IC50: 400 uM ATP, 25 C, 90 minutes, read-out: FGFR4 IC50; for Ratio FGFR1/FGFR4: [IC50 for FGFR1]/[IC50 for FGFR4]
T1 construct: purchased Carna Biosciences, Inc
T1 sequence (P22455 22-802): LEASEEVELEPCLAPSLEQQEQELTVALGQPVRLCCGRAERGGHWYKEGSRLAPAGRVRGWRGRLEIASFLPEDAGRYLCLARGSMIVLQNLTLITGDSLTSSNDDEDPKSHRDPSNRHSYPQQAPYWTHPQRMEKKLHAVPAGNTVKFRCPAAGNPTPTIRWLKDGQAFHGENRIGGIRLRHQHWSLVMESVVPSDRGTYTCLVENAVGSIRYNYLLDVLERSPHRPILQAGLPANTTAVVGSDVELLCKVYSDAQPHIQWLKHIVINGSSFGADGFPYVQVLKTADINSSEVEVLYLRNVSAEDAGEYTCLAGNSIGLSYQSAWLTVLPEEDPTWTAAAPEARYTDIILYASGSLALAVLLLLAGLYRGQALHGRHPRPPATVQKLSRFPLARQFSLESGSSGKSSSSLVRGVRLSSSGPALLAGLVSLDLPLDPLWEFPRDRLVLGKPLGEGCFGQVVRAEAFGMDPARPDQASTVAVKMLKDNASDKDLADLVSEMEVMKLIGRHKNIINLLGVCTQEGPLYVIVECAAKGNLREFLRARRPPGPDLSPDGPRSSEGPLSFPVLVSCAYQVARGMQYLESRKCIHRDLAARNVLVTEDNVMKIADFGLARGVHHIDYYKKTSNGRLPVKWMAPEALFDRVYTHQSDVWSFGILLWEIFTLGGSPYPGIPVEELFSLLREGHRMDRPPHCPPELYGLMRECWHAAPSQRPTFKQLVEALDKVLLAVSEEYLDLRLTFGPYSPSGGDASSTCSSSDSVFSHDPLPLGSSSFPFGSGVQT
Procedure: (§2) In order to assess the activity of chemical compounds against the relevant kinase of interest, the Caliper LifeSciences electrophoretic mobility shift technology platform is utilized. Fluorescently labeled substrate peptide is incubated in the presence dosed levels of compounds, a set concentration of kinase and of ATP, so that a reflective proportion of the peptide is phosphorylated. At the end of the reaction, the mix of phosphorylated (product) and non-phosphorylated (substrate) peptides are passed through the microfluidic system of the Caliper LabChip® EZ Reader II, under an applied potential difference. The presence of the phosphate group on the product peptide provides a difference in mass and charge between the product peptide and the substrate peptide, resulting in a separation of the substrate and product pools in the sample. As the pools pass the LEDS within the instrument, these pools are detected and resolved as separate peaks. The ratio between these peaks therefore reflects the activity of the chemical matter at that concentration in that well, under those conditions.
(§3) The reaction was stopped by the addition of 70 ul of Stop buffer (100 mM HEPES pH 7.5, 0.015% Brij 35, 35 mM EDTA and 0.2% of Coating Reagent 3 (Caliper Lifesciences)). The plate was then read on a Caliper LabChip® EZ Reader II (protocol settings: —1.9 psi, upstream voltage—700, downstream voltage—3000, post sample sip 35 s).

[4] = molecular target: T2, wild type FGFR-1 (Homo sapiens, UniProt P11362); test: FGFR-1 wild type assay at Km (Caliper mobility shift); format: biochemical; conditions: 400 uM ATP, 25 C, 90 minutes; read-out: FGFR1 IC50
T2 construct: purchased Carna Biosciences, Inc
T2 sequence (P11362 22-822): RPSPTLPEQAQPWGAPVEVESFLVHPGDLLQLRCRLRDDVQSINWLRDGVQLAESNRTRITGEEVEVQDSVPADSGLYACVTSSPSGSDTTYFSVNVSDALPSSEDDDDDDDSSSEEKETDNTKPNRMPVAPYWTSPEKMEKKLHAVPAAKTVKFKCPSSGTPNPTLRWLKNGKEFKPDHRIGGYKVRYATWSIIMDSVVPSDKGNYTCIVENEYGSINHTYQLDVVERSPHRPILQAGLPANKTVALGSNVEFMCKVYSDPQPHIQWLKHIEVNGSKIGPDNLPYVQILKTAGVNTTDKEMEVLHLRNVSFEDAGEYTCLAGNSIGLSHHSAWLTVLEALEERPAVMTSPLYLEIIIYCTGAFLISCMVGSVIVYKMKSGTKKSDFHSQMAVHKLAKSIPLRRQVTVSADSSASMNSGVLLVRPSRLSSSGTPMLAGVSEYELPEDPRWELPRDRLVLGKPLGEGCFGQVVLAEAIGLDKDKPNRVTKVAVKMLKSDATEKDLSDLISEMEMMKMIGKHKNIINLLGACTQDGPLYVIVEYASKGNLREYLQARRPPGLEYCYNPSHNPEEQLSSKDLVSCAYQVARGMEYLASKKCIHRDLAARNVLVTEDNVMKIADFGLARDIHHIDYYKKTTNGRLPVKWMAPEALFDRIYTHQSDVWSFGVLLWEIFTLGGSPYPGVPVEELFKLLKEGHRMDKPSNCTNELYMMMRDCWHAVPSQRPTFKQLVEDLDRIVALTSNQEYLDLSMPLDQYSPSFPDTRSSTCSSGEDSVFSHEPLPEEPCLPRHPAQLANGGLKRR
Procedure: as §2
as §3, with “EZReader 2” for “LabChip® EZ Reader II”

[5] = format: in vivo; conditions: 100 and 300 mg/kg PO BID, nude mice
Procedure: as §1
Body weight change (%) of Hep3B-bearing nude mice: FIG. 8 is a line graph depicting the body weight change (%) during the entire study period.

[6] = molecular target: FGFR-4 (Homo sapiens, UniProt P22455); test: Crystal structure of compound bound to FGFR-4 (Cys552); format: binding; conditions: FIG. 4, FIG. 5
Chain of FGFR-4 (P22455 22-802): as the sequence (P22455 22-802) above

| Structure (SMILES) | IC50 [3] [nM] | Ratio FGFR1/FGFR4 [3] | IC50 [4] [nM] | further results |
| --- | --- | --- | --- | --- |
| CCN1CCN(c2ccc(Nc3cc(N(C)C(=O)Nc4c(Cl)c(OC)cc(OC)c4Cl)ncn3)cc2)CC1 [BGJ398, reference compound] | – | – | – | tumor volume compared with vehicle group ([1]; 20 mg/kg PO QD, entire study): significant difference in tumor volume between BGJ398 (20 mg/kg PO QD) and vehicle groups was not observed; induction of apoptosis (Caspase activity) [2]: induction of apoptosis, although at a higher concentration |
| C=CC(=O)N(C)c1ncc2cc(-c3cc(OC)cc(OC)c3)c(=O)n(C)c2n1 [COMPOUND 3] | 10 to 100 | A (the ratio is >500) | > 1000 | – |
| C=CC(=O)N(C)c1ncc2nc(-c3cc(OC)cc(OC)c3)c(=O)n(C)c2n1 [COMPOUND 4] | 100 to 1000 | B (the ratio is ≧200 and <500) | > 1000 | – |
| C=CC(=O)N(C)c1ncc2cc(-c3c(Cl)c(OC)cc(OC)c3Cl)cnc2n1 [COMPOUND 8] | – | E (the ratio is ≧10 and <50) | 100 to 1000 | – |
| C=CC(=O)N(C)c1ncc2cc(-c3c(Cl)c(OC)cc(OC)c3Cl)c(=O)n(C)c2n1 [COMPOUND 12] | – | D (the ratio is ≧50 and <100) | 10 to 100 | – |
| C=CC(=O)N(C)c1ncc2c(n1)N(C)C(=O)N(c1c(Cl)c(OC)cc(OC)c1Cl)C2 [COMPOUND 14] | 10 to 100 | – | 100 to 1000 | – |
| C=CC(=O)Nc1ccccc1Nc1nccc(N2CCN(C(=O)Nc3ccc(C#N)cc3)CC2)n1 [COMPOUND 23] | 100 to 1000 | A (the ratio is >500) | > 1000 | – |
| C=CC(=O)Nc1cccc(C)c1Nc1ncc2cc(-c3c(Cl)c(OC)cc(OC)c3Cl)ccc2n1 [COMPOUND 25, N-(2-((6-(2,6-dichloro-3,5-dimethoxyphenyl)quinazolin-2-yl)amino)-3-methylphenyl)acrylamide] | – | – | 100 to 1000 | tolerability (body weight change) [5]: well tolerated; tumor regression ([1]; 100 mg/kg PO BID): regressed; tumor volume compared with vehicle group ([1]; 100 mg/kg PO BID, Day 4 to Day 19): Statistically significant reduction of tumor volumes; tumor regression ([1]; 300 mg/kg PO BID): almost disappeared; tumor volume compared with vehicle group ([1]; 300 mg/kg PO BID, Day 4 to Day 19): Statistically significant reduction of tumor volumes; induction of apoptosis (Caspase activity) [2]: potent induction of apoptosis |
| C=CC(=O)Nc1cccc(F)c1Nc1ncc2cc(-c3c(Cl)c(OC)cc(OC)c3Cl)ccc2n1 [COMPOUND 27] | – | C (the ratio is ≧100 and <200) | 10 to 100 | – |
| C=CC(=O)Nc1ccccc1-c1ccn2c(-c3cc(NC(=O)NCC(F)(F)F)cc(OC(C)C)c3)cnc2c1 [COMPOUND 38, N-(2-(3-(3-isopropoxy-5-(3-(2,2,2-trifluoroethyl)ureido)phenyl)imidazo[1,2-a]pyridin-7-yl)phenyl)acrylamide] | 100 to 1000 | E (the ratio is ≧10 and <50) | > 1000 | – |
| C=CC(=O)Nc1cccc(C)c1Nc1ncc2cc(-c3c(Cl)c(OC)cc(OC)c3Cl)c(=O)n(C)c2n1 [COMPOUND 43, N-(2-((6-(2,6-dichloro-3,5-dimethoxyphenyl)-8-methyl-7-oxo-7,8-dihydropyrido[2,3-d]pyrimidin-2-yl)amino)-3-methylphenyl)acrylamide] | – | – | 100 to 1000 | – |
| C=CC(=O)Nc1cccc(C(F)(F)F)c1Nc1ncc2cc(-c3c(Cl)c(OC)cc(OC)c3Cl)ccc2n1 [COMPOUND 51] | 10 to 100 | F (the ratio of [IC50 for FGFR1]/[IC50 for FGFR4] is less than 10) | > 1000 | – |
| CNC(=O)c1cc(Oc2ccc(NC(=O)Nc3ccc(Cl)c(C(F)(F)F)c3)cc2)ccn1 [Sorafenib, reference compound] | – | – | – | tumor volume compared with vehicle group ([1]; 30 mg/kg PO QD, Day 4 to Day 19): Statistically significant reduction of tumor volumes |

Further lines, with some results ahead:

| IC50 [3] [nM] | Ratio FGFR1/FGFR4 [3] | IC50 [4] [nM] | Structure (SMILES) | further results |
| --- | --- | --- | --- | --- |
| – | B (the ratio is ≧200 and <500) | 10 to 100 | C=CC(=O)Nc1ccccc1Nc1cc2c(cn1)cc(-c1c(Cl)c(OC)cc(OC)c1Cl)c(=O)n2C [COMPOUND 31] | – |
| – | C (the ratio is ≧100 and <200) | 100 to 1000 | C=CC(=O)Nc1ccc(F)c(F)c1Nc1ncc2cc(-c3c(Cl)c(OC)cc(OC)c3Cl)ccc2n1 [COMPOUND 37] | – |
| – | E (the ratio is ≧10 and <50) | 100 to 1000 | C=CC(=O)Nc1cccc(F)c1Nc1cc2c(cn1)cc(-c1c(Cl)c(OC)cc(OC)c1Cl)c(=O)n2C [COMPOUND 46] | – |
| – | B (the ratio is ≧200 and <500) | 10 to 100 | C=CC(=O)Nc1cccc(F)c1Nc1ncc2cc(-c3c(Cl)c(OC)cc(OC)c3Cl)cc(OC)c2n1 [COMPOUND 47] | – |
| – | E (the ratio is ≧10 and <50) | 100 to 1000 | C=CC(=O)Nc1cccc(C)c1Nc1ncc2c(n1)N(C)C(=O)N(c1c(Cl)c(OC)cc(OC)c1Cl)C2 [COMPOUND 48, N-(2-((6-(2,6-dichloro-3,5-dimethoxyphenyl)-8-methyl-7-oxo-5,6,7,8-tetrahydropyrimido[4,5-d]pyrimidin-2-yl)amino)-3-methylphenyl)acrylamide] | – |
| 10 to 100 | E (the ratio is ≧10 and <50) | 100 to 1000 | C=CS(=O)(=O)Nc1cccc(C)c1Nc1ncc2cc(-c3c(Cl)c(OC)cc(OC)c3Cl)ccc2n1 [COMPOUND 49A] | – |
| – | C (the ratio is ≧100 and <200) | 10 to 100 | C=CC(=O)N(CCCCN(CC)CC)c1ncc2cc(-c3cc(OC)cc(OC)c3)c(NC(=O)NC(C)(C)C)nc2n1 [COMPOUND 52, N-(7-(3-(tert-butyl)ureido)-6-(3,5-dimethoxyphenyl)pyrido[2,3-d]pyrimidin-2-yl)-N-(4-(diethylamino)butyl)acrylamide] | binding site in crystal structure [6]: binds to the cysteine at residue 552 of FGFR-4 |
| – | C (the ratio is ≧100 and <200) | 100 to 1000 | C=CC(=O)Nc1cc(N2CCOCC2)cc(C)c1Nc1ncc2cc(-c3c(Cl)c(OC)cc(OC)c3Cl)ccc2n1 [COMPOUND 53] | – |
| – | – | 10 to 100 | C=CC(=O)N(CCCCN(CC)CC)c1ncc2cc(-c3c(Cl)c(OC)cc(OC)c3Cl)c(NC(=O)NC(C)(C)C)nc2n1 [COMPOUND 55, N-(7-(3-(tert-butyl)ureido)-6-(2,6-dichloro-3,5-dimethoxyphenyl)pyrido[2,3-d]pyrimidin-2-yl)-N-(4-(diethylamino)butyl)acrylamide] | – |
